Tests used:
[1] = target: T1, terbium chelate-labeled menin / FITC-MBM1 peptide (Menin/MLL) (Homo sapiens, UniProt O00255, T541A); experiment: Menin/MLL homogenous time-resolved fluorescence (HTRF) assay; format: binding; conditions: read-out: (2) Menin HTRF assay (IC50 (nM))
T1 construct: Menin (a. a. l-610-6×his tag) was labeled with terbium cryptate as follows
T1 sequence (O00255 with tags, fused parts or gaps T541A): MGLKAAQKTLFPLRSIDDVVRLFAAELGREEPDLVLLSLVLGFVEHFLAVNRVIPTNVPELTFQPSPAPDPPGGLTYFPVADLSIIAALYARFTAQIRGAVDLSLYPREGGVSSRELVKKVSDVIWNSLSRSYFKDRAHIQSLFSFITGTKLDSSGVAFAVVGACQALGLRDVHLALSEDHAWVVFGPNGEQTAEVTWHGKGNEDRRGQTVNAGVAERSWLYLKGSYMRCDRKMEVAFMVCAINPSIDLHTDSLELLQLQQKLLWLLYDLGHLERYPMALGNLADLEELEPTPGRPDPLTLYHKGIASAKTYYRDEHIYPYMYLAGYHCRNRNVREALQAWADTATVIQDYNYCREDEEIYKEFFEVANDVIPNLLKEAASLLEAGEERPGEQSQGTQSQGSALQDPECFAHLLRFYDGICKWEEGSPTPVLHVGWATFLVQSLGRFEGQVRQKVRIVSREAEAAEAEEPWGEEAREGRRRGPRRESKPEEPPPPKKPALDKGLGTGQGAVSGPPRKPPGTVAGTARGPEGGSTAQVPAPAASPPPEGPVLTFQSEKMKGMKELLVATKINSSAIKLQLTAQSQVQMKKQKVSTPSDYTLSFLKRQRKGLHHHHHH
Method: 2) Menin/MLL Homogenous Time-Resolved Fluorescence (HTRF) Assay
To an untreated, white 384-well microtiter plate was added 40 nL 200× test compound in DMSO and 4 μL 2× terbium chelate-labeled menin (vide infra for preparation) in assay buffer (40 mM Tris .HCl, pH 7.5, 50 mM NaCl, 1 mM DTT and 0.05% Pluronic F-127). After incubation of test compound and terbium chelate-labeled menin for 5 min at ambient temperature, 4 μL 2×FITC-MBM1 peptide (FITC-P-alanine-SARWRFPARPGT-NH2) in assay buffer was added, the microtiter plate centrifuged at 1000 rpm for 1 min and the assay mixtures incubated for 15 min at ambient temperature. The relative amount of menin ⋅FITC-MBM1 complex present in an assay mixture is determined by measuring the homogenous time-resolved fluorescence (HTRF) of the terbium/FITC donor/acceptor fluorphore pair using a BMG Pherastar plate reader (ex. 337 nm/terbium cm. 490 nm/FITC cm. 520 nm) at ambient temperature. The degree of fluorescence resonance energy transfer (the HTRF value) is expressed as the ratio of the fluorescence emission intensities of the FITC and terbium fluorophores (P^m 520 nm//F^em 490 nm). The final concentrations of reagents in the binding assay are 100 pM terbium chelate-labeled menin, 75 nM FITC-MBM1 peptide and 0.5%) DMSO in assay buffer. Dose-response titrations of test compounds are conducted using an 11 point, three-fold serial dilution scheme, starting typically at 25 μM.
Compound potencies were determined by first calculating % inhibition at each compound concentration according to equation 1: % inhibition=((HC−LC)−(HTRF^compound−LC))/(HC−LC))*100 (Eqn 1)
Where LC and HC are the HTRF values of the assay in the presence or absence of a saturating concentration of a compound that competes with FITC-MBM1 for binding to menin, and HTRF^compound is the measured HTRF value in the presence of the test compound. HC and LC HTRF values represent an average of at least 16 replicates per plate.
Where Bottom and Top are the lower and upper asymptotes of the dose-response curve, respectively, IC50 is the concentration of compound that yields 50% inhibition of signal and h is the Hill coefficient.
Preparation of Terbium cryptate labeling of Menin: Menin (a. a. l-610-6×his tag) was labeled with terbium cryptate as follows. 2 mg of Menin was buffer exchanged into 1× phosphate buffered saline. 16 uM Menin was incubated with 4-fold molar excess NHS-terbium cryptate (Cisbio Bioassays, Bedford, Mass.) for 2 hours at room temperature. The labeled protein was purified away from free label by running the reaction over a Superdex 200 Increase 10/300 GL column at 0.75 ml/min. Peak fractions were collected, aliquoted and frozen at −80° C.

MV-4-1 1 cells (MLL-AF4) = experiment: Proliferation assay (spheroid-like growth, 8 d, live-cell imaging), MV-4-11; format: cell-based, human; conditions: Homo sapiens, MV4-11, 192 h, MV-4-11 cells, absolute IC50 from AUC of confluence, read-out: (3) Spheroid assay MV-4-11 (IC50 (μM))
Method: The anti-proliferative effect of menin/MLL protein/protein interaction inhibitor test compounds was assessed in human leukemia cell lines. The cell lines MV-4-1 1 and MOLM14 harbor MEL translocations and express the MEL fusion proteins MLL-AF4 and MLL-AF9, respectively, as well as the wildtype protein from the second allele. […] K562 was used as a control cell line containing two MLL wildtype alleles in order to exclude compounds that display general cytotoxic effects.
MV-4-1 1 and MOLM14 were cultured in RPMI-1640 (Sigma Aldrich) supplemented with 10% fetal bovine serum (HyClone), 2 mM L-glutamine (Sigma Aldrich) and 50 μg/ml gentamycin (Gibco). K562 were propagated in RPMI-1640 (Sigma Aldrich) supplemented with 20% fetal bovine serum (HyClone), 2 mM L-glutamine (Sigma Aldrich) and 50 μg/ml gentamycin (Gibco).
In order to assess the anti-proliferative effects, 1,500 MV-4-1 1, 300 MOLM14 or 750 K562 cells were seeded in 200 μl media per well in 96-well round bottom, ultra-low attachment plates (Costar, catalogue number 7007). Cell seeding numbers were chosen based on growth curves to ensure linear growth throughout the experiment. Test compounds were added at different concentrations and the DMSO content was normalized to 0.3%>. Cells were incubated for 8d at 37° C. and 5% C02. Spheroid like growth was monitored in real-time by live-cell imaging (IncuCyteZOOM, Essenbio, 4× objective) acquiring one image every four hours for 8d. Confluence (%) as a measure of spheroid size was determined using an integrated analysis tool.
In order to determine the cumulative effect of the test compounds over time, the area under the curve (AUC) in a plot of confluence against time was calculated. Confluence at the beginning of the experiment (t=0) was used as baseline for the AUC calculation.
Absolute IC50 values were calculated according to the following procedure: % Control=(AUC sample/AUC control)*100 AUC control=mean AUC of control values(cells without compound/DMSO as vehicle control)
A non-linear curve fit was applied using the least squares (ordinary) fit method to the plot of % control versus compound concentration. Based on this, the absolute IC50 value (half maximal inhibitory concentration of the test compound causing an anti-proliferative effect of 50% relative to the vehicle control) was calculated.

Row | IC50 [1] [nM] | IC50 (MV-4-1 1 cells (MLL-AF4)) [µM] | Compound
1 | 55 | 1.6 | Cn1cc(CNC2CCCN(c3ncnc4sc(CC(F)(F)F)cc34)CC2)cn1 (single isomer, unassigned) [Compound 11A]
2 | 194 | 2.8 | CN(C)CCN(Cc1ccccc1)[C@@H]1CCCN(c2ncnc3sc(CC(F)(F)F)cc23)CC1 (single isomer, unassigned) [Compound 57A]
3 | 222 | 4.4 | CN(C)CCN(Cc1ccccc1)[C@H]1CCCN(c2ncnc3sc(CC(F)(F)F)cc23)CC1 (single isomer, unassigned) [Compound 57B]
4 | 493 | 5.5 | Cn1cc(CN(Cc2ccccc2)[C@@H]2CCCN(c3ncnc4sc(CC(F)(F)F)cc34)CC2)cn1 (single isomer, unassigned) [Compound 60A]
5 | 295 | 2.4 | Cn1cc(CN(Cc2ccccc2)[C@H]2CCCN(c3ncnc4sc(CC(F)(F)F)cc34)CC2)cn1 (single isomer, unassigned) [Compound 60B]
6 | 164 | 3.8 | Cn1cc2c(n1)CCC[C@@H]2N[C@@H]1CCCN(c2ncnc3sc(CC(F)(F)F)cc23)CC1 (single isomer, unassigned) [Compound 66B]
7 | 103 | 1.9 | C[C@H]1CCN(c2ncnc3sc(CC(F)(F)F)cc23)CC[C@H]1NCc1ccccc1 (single isomer, unassigned) [Compound 68A]
8 | 686 |  | Cn1ncc2c1CCC[C@H]2N[C@H]1CCCN(c2ncnc3sc(CC(F)(F)F)cc23)CC1 [Compound 65C]
9 | 8690 |  | Cn1ncc2c1CCC[C@@H]2N[C@H]1CCCN(c2ncnc3sc(CC(F)(F)F)cc23)CC1 [Compound 65D]

More lines, now with the values behind:

Row | Compound | IC50 [1] [nM] | IC50 (MV-4-1 1 cells (MLL-AF4)) [µM]
10 | Cn1cc(CNC2CCCN(c3ncnc4sc(CC(F)(F)F)cc34)CC2)cn1 (racemic) [Compound 11] | 69 | 2
11 | Cc1ccc(CN[C@H]2CCCN(c3ncnc4sc(CC(F)(F)F)cc34)CC2)c(C)c1 (single isomer, unassigned) [Compound 9B] | 22 | 0.9
12 | Cn1cncc1CN[C@@H]1CCCN(c2ncnc3sc(CC(F)(F)F)cc23)CC1 (single isomer, unassigned) [Compound 28] | 149 | 3.4
13 | FC(F)(F)Cc1cc2c(N3CCC[C@@H](NCc4cccnc4)CC3)ncnc2s1 (single isomer, unassigned) [Compound 29] | 40 | 2.1
14 | FC(F)(F)Cc1cc2c(N3CCC[C@@H](NCc4ccnnc4)CC3)ncnc2s1 (single isomer, unassigned) [Compound 30] | 186 | 4.45
15 | CC(C)[C@H](N[C@@H]1CCCN(c2ncnc3sc(CC(F)(F)F)cc23)CC1)C1CNC1 (single isomer, unassigned) [Compound 31] | 34 | 1.4
16 | CC(C)[C@H](NC1CCCN(c2ncnc3sc(CC(F)(F)F)cc23)CC1)C1CNC1 (single isomer, unassigned) [Compound 33] | 27 | 2
17 | CC(C)[C@@H](NC1CCCN(c2ncnc3sc(CC(F)(F)F)cc23)CC1)C1CNC1 (single isomer, unassigned) [Compound 34] | 216 | 3.2
18 | CC(C)[C@@H](N[C@H]1CCCN(c2ncnc3sc(CC(F)(F)F)cc23)CC1)C1CNC1 (single isomer, unassigned) [Compound 36] | 170 | 2.5
19 | Fc1ccc(CNC2CCCN(c3ncnc4sc(CC(F)(F)F)cc34)CC2)c(F)c1 (stereo not shown) [Compound 7] | 55 | 1.6
20 | Fc1ccccc1CNC1CCCN(c2ncnc3sc(CC(F)(F)F)cc23)CC1 (stereo not shown) [Compound 8] | 64 | 1.6
21 | Cc1ccc(CNC2CCCN(c3ncnc4sc(CC(F)(F)F)cc34)CC2)c(C)c1 (stereo not shown) [Compound 9] | 36 | 1.4
22 | CNCc1cccc(CNC2CCCN(c3ncnc4sc(CC(F)(F)F)cc34)CC2)c1 (stereo not shown) [Compound 17] | 33 | 1.3
23 | COc1ccc(C)cc1CNC1CCCN(c2ncnc3sc(CC(F)(F)F)cc23)CC1 (stereo not shown) [Compound 18] | 563 | 4.7
24 | Cc1ccccc1CNC1CCCN(c2ncnc3sc(CC(F)(F)F)cc23)CC1 (stereo not shown) [Compound 19] | 41 | 2
25 | Fc1cccc(CNC2CCCN(c3ncnc4sc(CC(F)(F)F)cc34)CC2)c1 (stereo not shown) [Compound 24] | 53 | 1.2
26 | FC(F)(F)Cc1cc2c(N3CCCC(OCc4ccccc4)CC3)ncnc2s1 (stereo not shown) [Compound 44] | 137 | 4.3
27 | CNC(=O)c1ccc(CNC2CCCN(c3ncnc4sc(CC(F)(F)F)cc34)CC2)cc1 (stereo not shown) [Compound 49] | 45 | 1.1
28 | OCCN(Cc1ccccc1)C1CCCN(c2ncnc3sc(CC(F)(F)F)cc23)CC1 (stereo not shown) [Compound 50] | 185 | 2.3
29 | CN(C)CCCN(Cc1ccccc1)C1CCCN(c2ncnc3sc(CC(F)(F)F)cc23)CC1 (stereo not shown) [Compound 53] | 204 | 2.1
30 | FC(F)(F)Cc1cc2c(N3CCCC(NCC4CCOCC4)CC3)ncnc2s1 (stereo not shown) [Compound 55] | 227 | 
31 | CN(C)CCCNC1CCCN(c2ncnc3sc(CC(F)(F)F)cc23)CC1 (stereo not shown) [Compound 56] | 724 | 
32 | CN(C)CCCCN(Cc1cnn(C)c1)C1CCCN(c2ncnc3sc(CC(F)(F)F)cc23)CC1 (stereo not shown) [Compound 61] | 181 | 
33 | CN(C)CCCN(Cc1cnn(C)c1)C1CCCN(c2ncnc3sc(CC(F)(F)F)cc23)CC1 (stereo not shown) [Compound 63] | 369 | 
34 | FC(F)(F)Cc1cc2c(N3CCCC(NCc4ccncn4)CC3)ncnc2s1 (stereo not shown) [Compound 69] | 598 | 
